Among the data in patent US20240025884A1 (Dong-A ST Co., Ltd., priority 2022, published 2024) are IC50 values, retold here.

Chain of GCN2 (Q9P2K8 whole entry): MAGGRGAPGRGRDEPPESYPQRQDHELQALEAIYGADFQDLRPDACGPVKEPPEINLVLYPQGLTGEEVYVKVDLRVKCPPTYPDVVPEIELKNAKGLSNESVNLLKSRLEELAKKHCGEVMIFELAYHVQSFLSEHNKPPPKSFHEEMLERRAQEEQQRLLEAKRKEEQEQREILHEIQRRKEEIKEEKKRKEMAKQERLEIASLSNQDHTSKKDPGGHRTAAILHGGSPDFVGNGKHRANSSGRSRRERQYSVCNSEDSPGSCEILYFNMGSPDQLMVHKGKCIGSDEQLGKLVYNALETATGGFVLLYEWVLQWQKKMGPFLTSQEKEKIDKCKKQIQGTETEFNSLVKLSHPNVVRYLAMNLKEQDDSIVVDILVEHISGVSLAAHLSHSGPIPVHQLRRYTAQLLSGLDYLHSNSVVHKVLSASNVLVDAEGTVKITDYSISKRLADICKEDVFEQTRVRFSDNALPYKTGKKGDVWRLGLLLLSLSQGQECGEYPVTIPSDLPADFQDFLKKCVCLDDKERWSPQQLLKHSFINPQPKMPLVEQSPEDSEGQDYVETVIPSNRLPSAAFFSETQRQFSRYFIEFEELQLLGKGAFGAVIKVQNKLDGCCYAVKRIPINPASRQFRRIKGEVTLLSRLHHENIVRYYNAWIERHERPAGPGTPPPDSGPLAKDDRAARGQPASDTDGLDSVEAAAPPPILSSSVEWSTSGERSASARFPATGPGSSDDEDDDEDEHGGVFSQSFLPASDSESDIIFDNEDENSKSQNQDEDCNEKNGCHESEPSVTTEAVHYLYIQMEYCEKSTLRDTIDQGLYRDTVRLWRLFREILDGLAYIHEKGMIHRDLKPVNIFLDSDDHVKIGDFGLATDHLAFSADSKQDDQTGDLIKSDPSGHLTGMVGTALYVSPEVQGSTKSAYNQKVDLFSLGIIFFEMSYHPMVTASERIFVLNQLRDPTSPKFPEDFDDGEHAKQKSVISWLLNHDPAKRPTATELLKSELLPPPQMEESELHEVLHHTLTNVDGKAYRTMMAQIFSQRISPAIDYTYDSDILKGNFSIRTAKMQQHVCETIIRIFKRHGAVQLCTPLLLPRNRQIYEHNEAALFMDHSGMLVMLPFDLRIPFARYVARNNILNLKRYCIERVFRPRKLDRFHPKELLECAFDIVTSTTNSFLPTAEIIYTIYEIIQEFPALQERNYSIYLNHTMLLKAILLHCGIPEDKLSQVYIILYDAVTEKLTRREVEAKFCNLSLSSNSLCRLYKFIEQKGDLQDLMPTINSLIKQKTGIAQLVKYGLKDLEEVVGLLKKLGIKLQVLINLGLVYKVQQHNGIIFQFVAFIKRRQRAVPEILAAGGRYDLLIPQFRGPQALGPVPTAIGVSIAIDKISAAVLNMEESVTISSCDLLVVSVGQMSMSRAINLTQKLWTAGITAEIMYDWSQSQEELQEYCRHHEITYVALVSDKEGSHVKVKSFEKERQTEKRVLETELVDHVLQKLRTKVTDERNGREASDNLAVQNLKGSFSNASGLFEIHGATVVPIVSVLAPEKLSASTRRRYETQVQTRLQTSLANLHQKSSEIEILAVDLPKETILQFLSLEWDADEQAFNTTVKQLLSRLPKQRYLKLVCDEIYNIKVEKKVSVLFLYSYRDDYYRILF

The target of this assay is GCN2 (Homo sapiens (Human), UniProt Q9P2K8). In words: GCN2 Biochemical Assay (TR-FRET, GFP-eIF2S1 substrate phosphorylation). The note with it: read-out: IC50 (GCN2 Inhibitory Activity). In short, it runs like this:
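TR-FRET readout (Ex 340, Em 490/520 nm) after 2–3 h with Tb-labelled phospho-eIF2S1 antibody in stop mix, following a 70 min room-temperature kinase step. Reaction: in-house GCN2, GFP-eIF2S1, ATP, tRNA in Tris pH 7.5 (2× stocks 1.6 nM, 50 nM, 0.2 mM); compounds tested at 10 concentrations, with a phospho-substrate artifact counter-plate.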
For orientation: TR-FRET usually uses a lanthanide donor and a delayed reading to cut background.
Consider `Cc1cnc(Nc2cc(C)n(C)n2)nc1-c1c[nH]c2c(NC(=O)CN3CC[C@H](Oc4ccc(-c5ccccc5)cc4)C3)cccc12` [Example 100, (S)-2-(3-([1,1′-biphenyl]-4-yloxy)pyrrolidin-1-yl)-N-(3-(2-((1,5-dimethyl-1H-pyrazol-3-yl)amino)-5-methylpyrimidin-4-yl)-1H-indol-7-yl)acetamide], for which the IC50 (usually the concentration at which inhibition is half-maximal) lay in the range of 100 to 1000 nM. For `Cc1cnc(Nc2cc(C)n(C)n2)nc1-c1c[nH]c2c(NC(=O)CN3CC[C@H](C(=O)N4CCNC(=O)C4)C3)cccc12` [Example 62, (S)-N-(3-(2-((1,5-dimethyl-1H-pyrazol-3-yl)amino)-5-methylpyrimidin-4-yl)-1H-indol-7-yl)-2-(3-(3-oxopiperazine-1-carbonyl)pyrrolidin-1-yl)acetamide] the value was 100 to 1000 nM. For `Cc1cncc(-c2ccc(F)c3c2CN(c2cccc4c(-c5nc(Nc6cc(C)n(C)n6)ncc5C)c[nH]c24)C3=O)c1` [Example 486, 2-(3-(2-((1,5-dimethyl-1H-pyrazol-3-yl)amino)-5-methylpyrimidin-4-yl)-1H-indol-7-yl)-7-fluoro-4-(5-methylpyridin-3-yl)isoindolin-1-one] the value was less than 10 nM; for `Cc1cnc(Nc2cc(C)n(C)n2)nc1-c1c[nH]c2c(NC(=O)CN3CC[C@@H](O)C3)cccc12` [Example 71, (R)-N-(3-(2-((1,5-dimethyl-1H-pyrazol-3-yl)amino)-5-methylpyrimidin-4-yl)-1H-indol-7-yl)-2-(3-hydroxypyrrolidin-1-yl)acetamide], 10 to 100 nM; for `Cc1cnc(Nc2cc(C)n(C)n2)nc1-c1c[nH]c2c(N3Cc4c(NC(=O)C5CCCNC5)cccc4C3=O)cccc12` (stereo not shown) [Example 319, N-(2-(3-(2-((1,5-dimethyl-1H-pyrazol-3-yl)amino)-5-methylpyrimidin-4-yl)-1H-indol-7-yl)-1-oxoisoindolin-4-yl)piperidine-3-carboxamide], less than 10 nM. Under `Cc1cnc(Nc2cc(C)n(C)n2)nc1-c1c[nH]c2c(N3Cc4c(NC(=O)Cc5ccccc5)cccc4C3=O)cccc12` [Example 305, N-(2-(3-(2-((1,5-dimethyl-1H-pyrazol-3-yl)amino)-5-methylpyrimidin-4-yl)-1H-indol-7-yl)-1-oxoisoindolin-4-yl)-2-phenylacetamide] stands less than 10 nM; under `COc1ccc2c(-c3nc(Nc4cc(C)n(C)n4)ncc3C)c[nH]c2c1NC(=O)CN1CC[C@H](Oc2ccnc(NC3CC3)n2)C1` [Example 4, (S)-2-(3-((2-(cyclopropylamino)pyrimidin-4-yl)oxy)pyrrolidin-1-yl)-N-(3-(2-((1,5-dimethyl-1H-pyrazol-3-yl)amino)-5-methylpyrimidin-4-yl)-6-methoxy-1H-indol-7-yl)acetamide], less than 10 nM; under `Cc1cnc(Nc2cc(C)n(C)n2)nc1-c1c[nH]c2c(NC(=O)CN3CC[C@H](Oc4ccnc(OCc5ccccc5)n4)C3)cccc12` [Example 195, (S)-2-(3-((2-(benzyloxy)pyrimidin-4-yl)oxy)pyrrolidin-1-yl)-N-(3-(2-((1,5-dimethyl-1H-pyrazol-3-yl)amino)-5-methylpyrimidin-4-yl)-1H-indol-7-yl)acetamide], 10 to 100 nM. As to `Cc1cnc(Nc2cc(C)n(C)n2)nc1-c1c[nH]c2c(N3Cc4c(C#Cc5ccccc5)cccc4C3=O)cccc12` [Example 356, 2-(3-(2-((1,5-dimethyl-1H-pyrazol-3-yl)amino)-5-methylpyrimidin-4-yl)-1H-indol-7-yl)-4-(phenylethynyl)isoindolin-1-one], the IC50 is 100 to 1000 nM. With `Cc1cnc(Nc2cc(C)n(C)n2)nc1-c1c[nH]c2c(N3C(=O)c4ccccc4C3=O)cccc12` [Example 260, 2-(3-(2-((1,5-dimethyl-1H-pyrazol-3-yl)amino)-5-methylpyrimidin-4-yl)-1H-indol-7-yl)isoindoline-1,3-dione], the IC50 was less than 10 nM. As for `Cc1cnc(Nc2cc(C)n(C)n2)nc1-c1c[nH]c2c(N3Cc4c(cccc4-c4ccccc4C(=O)O)C3=O)cccc12` [Example 458, 2-(2-(3-(2-((1,5-dimethyl-1H-pyrazol-3-yl)amino)-5-methylpyrimidin-4-yl)-1H-indol-7-yl)-1-oxoisoindolin-4-yl)benzoic acid], the IC50 is 10 to 100 nM. On to `Cc1cnc(Nc2cc(C)n(C)n2)nc1-c1c[nH]c2c(NC(=O)CN3CC[C@H](Oc4nccc(N(C)C)n4)C3)cccc12` [Example 170, (S)-N-(3-(2-((1,5-dimethyl-1H-pyrazol-3-yl)amino)-5-methylpyrimidin-4-yl)-1H-indol-7-yl)-2-(3-((4-(dimethylamino)pyrimidin-2-yl)oxy)pyrrolidin-1-yl)acetamide], for which the 50% inhibitory concentration (IC50) was less than 10 nM. Turning to `Cc1cnc(Nc2cc(C)n(C)n2)nc1-c1c[nH]c2c(N3Cc4c(cccc4-c4ccccc4-c4ccccc4)C3=O)cccc12` [Example 439, 4-([1,1′-biphenyl]-2-yl)-2-(3-(2-((1,5-dimethyl-1H-pyrazol-3-yl)amino)-5-methylpyrimidin-4-yl)-1H-indol-7-yl)isoindolin-1-one], the IC50 was more than 1000 nM. As for `Cc1cnc(Nc2cc(C)n(C)n2)nc1-c1c[nH]c2c(NC(=O)CN3CC[C@H](Oc4ncc(F)cn4)C3)cccc12` [Example 93], the concentration for half-maximal inhibition (IC50) is 10 to 100 nM. For `CCN(CC)c1nc(O[C@H]2CCN(CC(=O)Nc3cccc4c(-c5nc(Nc6cc(C)n(C)n6)ncc5C)c[nH]c34)C2)ncc1F` [Example 183, (S)-2-(3-((4-(diethylamino)-5-fluoropyrimidin-2-yl)oxy)pyrrolidin-1-yl)-N-(3-(2-((1,5-dimethyl-1H-pyrazol-3-yl)amino)-5-methylpyrimidin-4-yl)-1H-indol-7-yl)acetamide], the 50% inhibitory concentration (IC50) was less than 10 nM.

For the compound `Cc1cnc(Nc2cc(C)n(C)n2)nc1-c1c[nH]c2c(N3Cc4cc(Br)ccc4C3=O)cccc12` [Example 270, 5-bromo-2-(3-(2-((1,5-dimethyl-1H-pyrazol-3-yl)amino)-5-methylpyrimidin-4-yl)-1H-indol-7-yl)isoindolin-1-one], the half-maximal inhibitory concentration (IC50) is less than 10 nM.

For `Cc1cnc(Nc2cc(C)n(C)n2)nc1-c1c[nH]c2c(NC(=O)CN3CCC(Oc4cccnc4)CC3)cccc12` [Example 38, N-(3-(2-((1,5-dimethyl-1H-pyrazol-3-yl)amino)-5-methylpyrimidin-4-yl)-1H-indol-7-yl)-2-(4-(pyridin-3-yloxy)piperidin-1-yl)acetamide], the half-maximal inhibitory concentration (IC50) was in the range of 100 to 1000 nM. In the case of `Cc1cnc(Nc2cc(C)n(C)n2)nc1-c1c[nH]c2c(NC(=O)CN3CC[C@H](Oc4cc(N)ncn4)C3)cccc12` [Example 140, (S)-2-(3-((6-aminopyrimidin-4-yl)oxy)pyrrolidin-1-yl)-N-(3-(2-((1,5-dimethyl-1H-pyrazol-3-yl)amino)-5-methylpyrimidin-4-yl)-1H-indol-7-yl)acetamide], the half-inhibitory concentration (IC50) is less than 10 nM. For the compound `Cc1cnc(Nc2cc(C)n(C)n2)nc1-c1c[nH]c2c(NC(=O)CN3CC[C@@H](Nc4ccncn4)C3)cccc12` [Example 48, (R)-N-(3-(2-((1,5-dimethyl-1H-pyrazol-3-yl)amino)-5-methylpyrimidin-4-yl)-1H-indol-7-yl)-2-(3-(pyrimidin-4-ylamino)pyrrolidin-1-yl)acetamide], the IC50 is 10 to 100 nM.
